Where “and” joins values, the source holds several entries; their conditions need not be identical. Identical values can stand only once. Inconclusive results are not listed.
Test system: CD8F1 mice, subcutaneous mammary adenocarcinoma, T/C%
Experiment: NCI In Vivo Anticancer Drug Screen. Data for tumor model Mammary Adenocarcinoma CD8F1 (subcutaneous) in CD8F1
Conditions: higher = larger tumour
In short: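 Tumor-bearing mice, transplantable model; readout survival or tumor size; value = treated (T) / vehicle control (C).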

SMILES: C=C(OP(=O)(OC)OC)Sc1ccccc1C
- T/C (endpoint: median tumor weight change, dose: 0.38 mg/kg/injection, schedule: Q01DX001 (ip), vehicle: Klucel (hydroxypropylcellulose) (HPC)): 80 % of control
- T/C (endpoint: median tumor weight change, dose: 0.75 mg/kg/injection, schedule: Q01DX001 (ip), vehicle: Klucel (hydroxypropylcellulose) (HPC)): 96 % of control
- T/C (endpoint: median tumor weight change, dose: 1.5 mg/kg/injection, schedule: Q01DX001 (ip), vehicle: Klucel (hydroxypropylcellulose) (HPC)): 88 % of control

SMILES: COC(=O)Nc1nc2ccc(SC)cc2c(=O)[nH]1
- T/C (endpoint: median tumor weight change, dose: 125.0 mg/kg/injection, schedule: Q01DX001 (ip), vehicle: Klucel (hydroxypropylcellulose) (HPC)): 79 % of control
- T/C (endpoint: median tumor weight change, dose: 250.0 mg/kg/injection, schedule: Q01DX001 (ip), vehicle: Klucel (hydroxypropylcellulose) (HPC)): 61 % of control
- T/C (endpoint: median tumor weight change, dose: 500.0 mg/kg/injection, schedule: Q01DX001 (ip), vehicle: Klucel (hydroxypropylcellulose) (HPC)): 57 % of control

SMILES: COc1ccc(S(=O)(=O)N/N=C/C(=O)O)cc1
- T/C (endpoint: median tumor weight (est.), dose: 6.25 mg/kg/injection, schedule: Q07DX005 (ip), vehicle: saline with Tween-80): 55 % of control
- T/C (endpoint: median tumor weight (est.), dose: 12.5 mg/kg/injection, schedule: Q07DX005 (ip), vehicle: saline with Tween-80): 198 % of control
- T/C (endpoint: median tumor weight (est.), dose: 25.0 mg/kg/injection, schedule: Q07DX005 (ip), vehicle: saline with Tween-80): 73 % of control and 82 % of control
- T/C (endpoint: median tumor weight (est.), dose: 50.0 mg/kg/injection, schedule: Q07DX005 (ip), vehicle: saline with Tween-80): 206 % of control
- T/C (endpoint: median tumor weight (est.), dose: 200.0 mg/kg/injection, schedule: Q07DX005 (ip), vehicle: saline with Tween-80): 44 % of control and 61 % of control

SMILES: C/C=C\C1OC1(C)c1cc(=O)c2c(C)cc3c(c2o1)C(=O)c1c(O)c(C2CC(C)(N(C)C)C(OC(C)=O)C(C)O2)cc(C2CC(N(C)C)C(O)C(C)O2)c1C3=O (stereo unspecified)
- T/C (endpoint: median tumor weight change, dose: 0.31 mg/kg/injection, schedule: Q01DX001 (ip), vehicle: saline + alcohol): 69 % of control
- T/C (endpoint: median tumor weight change, dose: 0.62 mg/kg/injection, schedule: Q01DX001 (ip), vehicle: saline + alcohol): 85 % of control
- T/C (endpoint: median tumor weight change, dose: 1.25 mg/kg/injection, schedule: Q01DX001 (ip), vehicle: saline + alcohol): 70 % of control
- T/C (endpoint: median tumor weight change, dose: 2.5 mg/kg/injection, schedule: Q01DX001 (ip), vehicle: saline + alcohol): 31 % of control
- T/C (endpoint: median tumor weight change, dose: 5.0 mg/kg/injection, schedule: Q01DX001 (ip), vehicle: saline + alcohol): 34 % of control
- T/C (endpoint: median tumor weight change, dose: 10.0 mg/kg/injection, schedule: Q01DX001 (ip), vehicle: saline + alcohol): 25 % of control

SMILES: O=C(NO)c1cc(O)c(O)c(O)c1
- T/C (endpoint: median tumor weight change, dose: 300.0 mg/kg/injection, schedule: Q01DX001 (ip), vehicle: water): 124 % of control
- T/C (endpoint: median tumor weight change, dose: 600.0 mg/kg/injection, schedule: Q01DX001 (ip), vehicle: water): 78 % of control

SMILES: Cc1[nH]c(=O)[nH]c(=O)c1N(CCF)CCCl
- T/C (endpoint: median tumor weight (est.), dose: 2.5 mg/kg/injection, schedule: Q07DX005 (ip), vehicle: Klucel (hydroxypropylcellulose) (HPC)): 113 % of control
- T/C (endpoint: median tumor weight (est.), dose: 5.0 mg/kg/injection, schedule: Q07DX005 (ip), vehicle: Klucel (hydroxypropylcellulose) (HPC)): 97 % of control
- T/C (endpoint: median tumor weight (est.), dose: 10.0 mg/kg/injection, schedule: Q07DX005 (ip), vehicle: Klucel (hydroxypropylcellulose) (HPC)): 79 % of control
- T/C (endpoint: median tumor weight (est.), dose: 20.0 mg/kg/injection, schedule: Q07DX005 (ip), vehicle: Klucel (hydroxypropylcellulose) (HPC)): 63 % of control
- T/C (endpoint: median tumor weight change, dose: 100.0 mg/kg/injection, schedule: Q01DX001 (ip), vehicle: Klucel (hydroxypropylcellulose) (HPC)): 68 % of control

SMILES: CCCCCCOC(CN(C)C)C(Cl)(Cl)Cl (stereo unspecified)
- T/C (endpoint: median tumor weight change, dose: 100.0 mg/kg/injection, schedule: Q01DX001 (ip), vehicle: saline with Tween-80): 53 % of control
- T/C (endpoint: median tumor weight change, dose: 125.0 mg/kg/injection, schedule: Q01DX001 (ip), vehicle: saline with Tween-80): 173 % of control
- T/C (endpoint: median tumor weight change, dose: 200.0 mg/kg/injection, schedule: Q01DX001 (ip), vehicle: saline with Tween-80): 68 % of control
- T/C (endpoint: median tumor weight change, dose: 250.0 mg/kg/injection, schedule: Q01DX001 (ip), vehicle: saline with Tween-80): 81 % of control
- T/C (endpoint: median tumor weight change, dose: 400.0 mg/kg/injection, schedule: Q01DX001 (ip), vehicle: saline with Tween-80): 93 % of control
- T/C (endpoint: median tumor weight change, dose: 500.0 mg/kg/injection, schedule: Q01DX001 (ip), vehicle: saline with Tween-80): 72 % of control
- T/C (endpoint: median tumor weight change, dose: 1000.0 mg/kg/injection, schedule: Q01DX001 (ip), vehicle: saline with Tween-80): 79 % of control
